Source: paper PMC8769378, “Underlining the Importance of Peripheral Protic Functional Groups to Enhance the Proton Exchange of Gd-Based MRI Contrast Agents” (Inorganic Chemistry, 2021)
Read-outs that look alike come from different tables or passages of the source. Marks after values point to notes of the source that are not given here.

Key:
[1] = cited from earlier work
[2] = cited from earlier work; remark: listed apart in the source
[3] = cited from earlier work; remark: listed apart in the source
[4] = cited from earlier work; remark: listed apart in the source
[5] = Conditional stability constant pGd; format: physicochemical; conditions: pGd = −log[Gd]free, [Gd^3+] = 1 μM, [L] = 10 μM, pH = 7.4; calculated from the constants
[6] = cited from earlier work; remark: listed apart in the source
[7] = parameters: method as in PMID 18963244, doi:10.1016/0020-1693(96)05094-3; conditions: cited from earlier work
[8] = cited from earlier work; remark: listed apart in the source
[9] = Acid-assisted dissociation kinetics of Gd^III complexes followed by ^1H NMR relaxometry; conditions: calculated from acid-assisted dissociation only, pH = 7.4, 298 K; comparators from literature constants
From the text: In order to investigate the kinetic inertness of the Gd^III complex, the dissociation reactions of GdL2 were followed by ^1H NMR relaxometry (21 MHz and 298 K) in the presence of large acid excess ([HCl] = 0.01–1.0 M) to guarantee the pseudo-first-order kinetic conditions.
The kinetic inertness of the GdL2 was characterized by the rates of the dissociation reactions taking place in 0.01–1.0 M HCl solution. The dissociation reactions of the GdL2 were followed by measuring the longitudinal relaxation time of H2O protons (T1) with a Stelar relaxometer connected to a Bruker WP80 NMR electromagnet adapted to variable-field measurements (15–80 MHz proton Larmor frequency). The temperature was controlled with a Stelar VTC-91 airflow heater equipped with a calibrated copper–constantan thermocouple (uncertainty of ±0.1 °C). Measures were carried out at 21 MHz and 25 °C. The longitudinal relaxation time (T1) was measured with the “inversion recovery” method (180° – τ – 90°) by using 16 different τ values with a typical 90° pulse width of 6.5 μs, 4 scans. The measurements were performed with a 1 mM solution of the GdL2 complex. The relaxivity values were given as r1 = 1/T1p + 1/T1w where T1p and T1w are the relaxation times of the bulk water protons in the presence and absence of GdL2. The pseudo-first-order rate constants (kd) were calculated by fitting the relaxation rate (r1 = 1/T1p) data to eq 4. […] 4 where rr and rv are the relaxivity values of the reactants and the product (Gd^3+: r1p = 12.85 (2) mM^–1 s^–1, 21 MHz, 25 °C) and rt is the measured relaxivity at reaction time t. The temperature was maintained at 25 °C, and the ionic strength of the solutions was kept constant at [H^+] ≤ 0.15 M, [HCl] + [NaCl] = 0.15 M. The calculation of the kinetic parameters was performed by the fitting of the absorbance–time and relaxation rate–time data pairs with the Micromath Scientist computer program (version 2.0, Salt Lake City, UT).
Kinetic inertness of GdL2
In order to investigate the kinetic inertness of GdL2, the dissociation reactions of GdL2 were followed
by 1H-NMR relaxometry in the presence of large acid excess ([HCl]= 0.01 – 1.0 M) to guarantee the
pseudo-first-order kinetic conditions. The R1obs values as a function of time for the dissociation
In the presence of HCl excess, the dissociation of GdL2 can be treated as a pseudo-first-order process
and the rate of the reaction can be expressed by Eq. (S7)
where kd is a pseudo-first-order rate constant, [GdL]t and [GdL]tot are the concentrations of the GdL
species at time t and the total concentration of the complex, respectively. The rates of the dissociation
reactions were determined at different concentrations of HCl ([HCl]=0.01 – 1.0 M).
The proton assisted dissociation
of GdL2 might occur by the equilibrium formation of a protonated *Gd(H2L2) intermediate (Eq.
(S8)), which dissociates spontaneously (Eq. (S9)).
Gd(HL2) + H Gd(H2L2) (S8)

[10] = cited from earlier work; remark: listed apart in the source
[11] = parameters: method as in PMID 34123071; conditions: 0.15 M NaCl, 298 K ref 7, cited from earlier work; for ^GdLH–1r1^is+os / ^GdLr1^is+os: 20 MHz
[12] = cited from earlier work; for ^298r1-60-MHz: 298 K; for ^310r1-60-MHz: 310 K
[13] = cited from earlier work; remark: listed apart in the source
[14] = Longitudinal relaxivity r1 and relaxivity vs pH profiles; format: physicochemical; conditions: 21 MHz, 25 °C
Experimental: The longitudinal relaxivity values (r1) for GdL1 and GdL2, at 20 MHz (0.47 T), 298 K, and pH 7.4, are 4.7 and 5.1 mM^–1 s^–1, respectively. These are typical values of the clinical MRI contrast agents, i.e., low-molecular-weight q = 1 Gd^III chelates that tumble rapidly in solution.[1],[2] In particular, these values compare well with the r1 reported for GdHPDO3A[24] and other HPDO3A-like complexes such as GdHPDO3MA[25] or the series of Gd-hydroxypropylamide-DO3A (HPADO3A, Scheme 1)[7] complexes measured at the same experimental conditions.
At pH >3, the r1 values of GdL2 decrease with the increase of pH from 6.6 mM^–1 s^–1 to reach a plateau of 5.1 mM^–1 s^–1 around pH = 7.5. A further increase of the pH results in the slight increase of r1 reaching a maximum around pH = 9.5. Finally, at pH >9.5, another small decrease in r1 is observed. On the other hand, in the case of GdL1, the r1 values are independent from the pH in the range 4.0–7.5, whereas at pH >8.0, r1 increases up to 5.2 mM^–1 s^–1. The r1 values of GdL1 were measured in the pH range 4–10 in order to avoid the hydrolysis of the methyl ester. […] Then, the overall relaxivity, r1, is given by eq 1: [drawing 1] 1 where r1^is, r1^os, and r1^pr are the relaxivity components due to the inner and outersphere water molecules and the −OH group, respectively. r1^pr can be expressed as follows:[26]−[28] [drawing 2] 2
Proton relaxation measurements (1/T1) and the resulting 1/T1 NMRD profiles were measured on a fast-field cycling (FFC) Stelar SmarTracer relaxometer over a continuum of magnetic field strengths from 0.000 24 to 0.25 T (corresponding to 0.01–10 MHz proton Larmor frequencies). The relaxometer operates under computer control with an absolute uncertainty in 1/T1 of ±1%. […] Furthermore, the real temperature inside the probe head was additionally monitored by a Fluke 52 k/j digital thermometer (Fluke, Zürich, Switzerland). The gadolinium concentration was determined by measuring the bulk magnetic susceptibility shifts of the t-BuOH ^1H NMR signal. Additional data in the 20–120 MHz frequency range were obtained with a high field relaxometer (Stelar) equipped with the HTS-110 3T metrology cryogen-free superconducting magnet. […] The pH-dependent relaxivity measurements of GdL1 and GdL2 complexes were carried out by direct titration of the samples (GdL2, 3.0 < pH < 12.5; GdL1, 4 < pH < 10). The pH was adjusted by the stepwise addition of concentrated NaOH or HCl solution. Calculations were performed with the computer program Micromath Scientist, version 2.0 (Salt Lake City, UT).

[15] = 0.15 M NaCl, 25 °C ref [11] (SI)
[16] = I = 0.1 M Me4NCl, 298 K ref 19, 20
[17] = 0.1 M Me4NCl, 25 °C ref [13], [14] (SI)

In the case of `O=C(O)CN1CCN(CC(=O)O)CCN(C(CO)C(O)CO)CCN(CC(=O)O)CC1` (stereo not drawn) [BT-DO3A], the “Gd(L)H–1 (log KGd(L)H-1)” value ([1]; I = 0.1 M NaCl, 298 K ref 15) is given as 9.48, the “CaL (log K, stability constant)” value ([2]; I = 0.1 M NaCl, 298 K ref 15) is given as 12.1 and the “GdL (log KGdL, stability constant)” value ([3]; I = 0.1 M NaCl, 298 K ref 15) is given as 18.7. For the same molecule, the “GdH2L (log K, *Gd(H2L) out-of-cage intermediate)” value ([3]; footnote 0.15 M NaCl, 25 °C ref [5] (SI)) was 4.53, the “log K1^H” value ([4]; I = 0.1 M NaCl, 298 K ref 15) was 9.46 and the “log K2^H” value ([4]; I = 0.1 M NaCl, 298 K ref 15) was 9.36. The “log K3^H” value ([4]; I = 0.1 M NaCl, 298 K ref 15) was 4.17, the “log K4^H” value ([4]; I = 0.1 M NaCl, 298 K ref 15) was 3.02 and the pGd [5] was 15.63 ^h. The “CuH2L (log K)” value ([6]; 0.1 M NaCl, 25 °C ref [5] (SI)) was 2.4, the “CuHL (log K)” value ([6]; 0.1 M NaCl, 25 °C ref [5] (SI)) was 3.8 and the “CuL (log K, stability constant)” value ([6]; I = 0.1 M NaCl, 298 K ref 15) was 19.1. For the same molecule, the “log KNa(L) (stability of the Na^+ complex)” value [7] was 2.32, the “ZnHL (log K)” value ([8]; 0.1 M NaCl, 25 °C ref [5] (SI)) was 4.3 and the “ZnL (log K, stability constant)” value ([8]; I = 0.1 M NaCl, 298 K ref 15) was 17.0.

For `O=C(O)CN1CCN(CC(=O)O)CCN(CC(=O)O)CCN(CC(=O)O)CC1` [DOTA], the “GdL (log KGdL, stability constant)” value ([3]; I = 0.1 M NaCl, 298 K ref 22) is given as 24.7, the “GdH2L (log K, *Gd(H2L) out-of-cage intermediate)” value ([3]; footnote 0.15 M NaCl, 25 °C ref [16] (SI)) is given as 6.07 and the “log K1^H” value ([4]; I = 0.1 M NaCl, 298 K ref 22) is given as 9.37. For the same molecule, the “log K2^H” value ([4]; I = 0.1 M NaCl, 298 K ref 22) was 9.14, the “log K3^H” value ([4]; I = 0.1 M NaCl, 298 K ref 22) was 4.63 and the “log K4^H” value ([4]; I = 0.1 M NaCl, 298 K ref 22) was 3.91. The pGd [5] was 22.09 ^h and the “log KNa(L) (stability of the Na^+ complex)” value [7] was 4.38.

In the case of `O=C([O-])CN1CCN(CC(=O)[O-])CCN(C(CO)C(O)CO)CCN(CC(=O)[O-])CC1.[Gd+3]` (stereo not drawn) [GdBT-DO3A], the “kd at pH = 7.4” value [9] is listed as 1.35 × 10^–12 s^–1 and the “k1 (acid-catalyzed dissociation rate constant)” value ([10]; 298 K ref 15) is listed as 2.8 × 10^–5 M^–1 s^–1.

In the case of `O=C([O-])CN1CCN(CC(=O)[O-])CCN(CC(=O)[O-])CCN(CC(=O)[O-])CC1.[Gd+3]` [GdDOTA], the “kd at pH = 7.4” value [9] is listed as 7.28 × 10^–14 s^–1, the “K^HGdL” value ([10]; 298 K ref 18) is listed as 14 M^–1 and the “k1 (acid-catalyzed dissociation rate constant)” value ([10]; 298 K ref 18) is listed as 1.8 × 10^–6 M^–1 s^–1.

For `NC(=O)[C@H](O)CN1CCN(CC(=O)[O-])CCN(CC(=O)[O-])CCN(CC(=O)[O-])CC1.[Gd+3]` [GdHPADO3A], the “kH × 10^–11” value [11] is listed as 2.1 M^–1 s^–1, the “^GdLH–1r1^is+os” value [11] is listed as 4.32 mM^–1 s^–1 and the “^GdLr1^is+os” value [11] is listed as 4.57 mM^–1 s^–1. For the same molecule, the “kd at pH = 7.4” value [9] was 6.41 × 10^–12 s^–1, the “^298r1-60-MHz” value ([12]; 60 MHz ref 7) was 3.6 mM^–1 s^–1 and the “^310r1-60-MHz” value ([12]; 60 MHz ref 7) was 2.9 mM^–1 s^–1. For the same molecule, the “Δ^2” value [12] was 8.5 10^19 s^–2, the τR [12] was 62 ps and the τv [12] was 14 ps. The “τR(SS)” value ([12]; determined for qSS = 2 and rSF = 3.5 Å ref 7) was 13, the τM ([12]; pH 7 ref 7) was 20 ns and the “Δr1 (relaxivity increase)” value ([13]; from pH 7.4 to 5 ref 7) was 5.5 mM^–1 s^–1. For the same molecule, the “k1 (acid-catalyzed dissociation rate constant)” value ([10]; 298 K ref 7) was 1.6 × 10^–4 M^–1 s^–1.

In the case of `CC(O)CN1CCN(CC(=O)[O-])CCN(CC(=O)[O-])CCN(CC(=O)[O-])CC1.[Gd+3]` (stereo not drawn) [GdHPDO3A], the “kOH × 10^–10” value [11] is listed as 1.0 M^–1 s^–1, the “^GdLH–1r1^is+os” value [11] is listed as 4.54 mM^–1 s^–1 and the “^GdLr1^is+os” value [11] is listed as 4.28 mM^–1 s^–1. For the same molecule, the “kd at pH = 7.4” value [9] was 1.15 × 10^–11 s^–1, the “^298r1-60-MHz” value ([12]; 60 MHz ref 24) was 4.2 mM^–1 s^–1 and the “^310r1-60-MHz” value ([12]; 60 MHz ref 24) was 3.2 mM^–1 s^–1. The “Δ^2” value ([12]; SAP isomer ref 24) was 9.9 10^19 s^–2, the τM ([12]; SAP isomer ref 24) was 640 ns and the τv ([12]; SAP isomer ref 24) was 8 ps. The “Δ^2” value ([12]; TSAP isomer ref 24) was 1.5 10^19 s^–2, the τM ([12]; TSAP isomer ref 24) was 8.5 ns and the τv ([12]; TSAP isomer ref 24) was 30 ps. The τR [12] was 65 ps, the “Δr1 (base-catalyzed proton exchange contribution to r1)” value ([13]; pH > 10 ref 5) was 1.2 mM^–1 s^–1 and the “k1 (acid-catalyzed dissociation rate constant)” value ([10]; 298 K ref 18) was 2.9 × 10^–4 M^–1 s^–1.

With `[Gd+3]` [Gd^3+] the r1p [14] was 12.85 (2) mM^–1 s^–1.

In the case of `NC(=O)[C@H](O)CN1CCN(CC(=O)O)CCN(CC(=O)O)CCN(CC(=O)O)CC1` [HPADO3A], the “Gd(L)H–1 (log KGd(L)H-1)” value ([1]; I = 0.15 M NaCl, 298 K ref 7) is listed as 6.73, the “Ca(L)H-1 (log K)” value [2, 15] is listed as 11.50 and the “CaHL (log K)” value [2, 15] is listed as 4.67. The “CaL (log K, stability constant)” value ([2]; I = 0.15 M NaCl, 298 K ref 7) was 12.13, the “GdH2L (log K, *Gd(H2L) out-of-cage intermediate)” value [3, 15] was 5.72 and the “GdL (log KGdL, stability constant)” value ([3]; I = 0.15 M NaCl, 298 K ref 7) was 18.41. For the same molecule, the “log K1^H” value ([4]; I = 0.15 M NaCl, 298 K ref 7) was 8.96, the “log K2^H” value ([4]; I = 0.15 M NaCl, 298 K ref 7) was 9.07 and the “log K3^H” value ([4]; I = 0.15 M NaCl, 298 K ref 7) was 4.22. The “log K4^H” value ([4]; I = 0.15 M NaCl, 298 K ref 7) was 2.64, the “log K5^H” value ([4]; I = 0.15 M NaCl, 298 K ref 7) was 1.25 and the pGd [5] was 16.88 ^h. The “Cu(L)H-1 (log K)” value [6, 15] was 10.55, the “CuH2L (log K)” value [6, 15] was 1.24 and the “CuHL (log K)” value [6, 15] was 4.00. The “CuL (log K, stability constant)” value ([6]; I = 0.15 M NaCl, 298 K ref 7) was 21.53, the “Zn(L)H-1 (log K)” value [8, 15] was 10.79 (5) and the “ZnH2L (log K)” value [8, 15] was 2.87. For the same molecule, the “ZnHL (log K)” value [8, 15] was 3.67 and the “ZnL (log K, stability constant)” value ([8]; I = 0.15 M NaCl, 298 K ref 7) was 17.18.

For `CC(O)CN1CCN(CC(=O)O)CCN(CC(=O)O)CCN(CC(=O)O)CC1` (stereo not drawn) [HPDO3A, 10-(2-hydroxypropyl)-1,4,7,10-tetraazacyclododecane-1,4,7-triacetic acid], the “CaL (log K, stability constant)” value [2, 16] is listed as 14.83, the “GdL (log KGdL, stability constant)” value [3, 16] is listed as 23.8 and the “GdH2L (log K, *Gd(H2L) out-of-cage intermediate)” value ([3]; footnote 0.15 M NaCl, 25 °C ref [13], [14] (SI)) is listed as 5.10. For the same molecule, the “log K1^H” value [4, 16] was 11.96, the “log K2^H” value [4, 16] was 9.43 and the “log K3^H” value [4, 16] was 4.30. For the same molecule, the “log K4^H” value [4, 16] was 3.26, the pGd [5] was 18.16 ^h and the “CuH2L (log K)” value [6, 17] was 2.3. The “CuHL (log K)” value [6, 17] was 3.72, the “CuL (log K, stability constant)” value [6, 16] was 22.84 and the “ZnHL (log K)” value [8, 17] was 3.7. The “ZnL (log K, stability constant)” value [8, 16] was 19.37.
